In US20230310445A1, “LOX ENZYME INHIBITING METHODS AND COMPOSITIONS” (ANOVIA BIOSCIENCES, INC., priority 2020, published 2023):

Columns and labels:
[1] = target: T1, Recombinant human LOXL3 (lysyl oxidase like 3) (Homo sapiens, UniProt P58215); assay: LOXL3 inhibition assay (fluorometric, cadaverine/Amplex Red/HRP); assay type: biochemical; details: IC50 class; recombinant human LOXL3, cadaverine substrate; read-out: Activity Range LOXL3
T1 construct: purchased R&D systems
T1 sequence (P58215 26-753): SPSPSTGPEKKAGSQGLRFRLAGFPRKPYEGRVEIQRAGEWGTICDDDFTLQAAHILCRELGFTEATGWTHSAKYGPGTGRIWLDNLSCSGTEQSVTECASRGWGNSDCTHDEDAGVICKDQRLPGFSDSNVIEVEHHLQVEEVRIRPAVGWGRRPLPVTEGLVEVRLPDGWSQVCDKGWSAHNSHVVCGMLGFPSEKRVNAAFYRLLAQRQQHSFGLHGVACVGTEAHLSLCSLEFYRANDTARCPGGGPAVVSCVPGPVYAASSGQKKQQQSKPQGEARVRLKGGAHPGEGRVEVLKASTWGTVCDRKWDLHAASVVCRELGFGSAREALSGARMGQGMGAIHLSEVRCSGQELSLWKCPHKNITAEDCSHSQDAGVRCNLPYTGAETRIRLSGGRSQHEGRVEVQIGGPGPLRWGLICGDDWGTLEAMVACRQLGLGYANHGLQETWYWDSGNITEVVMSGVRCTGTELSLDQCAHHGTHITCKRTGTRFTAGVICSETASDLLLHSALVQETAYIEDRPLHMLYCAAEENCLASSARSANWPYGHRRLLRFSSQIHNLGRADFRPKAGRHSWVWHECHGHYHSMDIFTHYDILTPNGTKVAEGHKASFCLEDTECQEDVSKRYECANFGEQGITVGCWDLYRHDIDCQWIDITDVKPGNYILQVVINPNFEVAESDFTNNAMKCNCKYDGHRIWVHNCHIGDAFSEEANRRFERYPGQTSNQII
Protocol: The ability of compounds to inhibit one or more of the lysyl oxidases LOXL2 and/or LOXL3 was determined using a fluorometric assay. This assay measures the activity of lysyl oxidases by coupling the reaction with horseradish peroxidase-catalyzed […]. The activity assay protocol uses cadaverine as substrate that releases hydrogen peroxide upon transformation by the specific LOX family enzyme present in the sample. Hydrogen peroxide is in turn detected using a red fluorescence substrate for HRP-coupled reactions (Amplex Red Enzyme Assays, Thermo Scientific Fisher). This leads to increase in fluorescence that can be easily detected at Ex/Em=540/590 nm in a fluorescence microplate reader.
Enzymes: Recombinant human LOXL2 (lysyl oxidase like 2) and recombinant human LOXL3 (lysyl oxidase like 3) were purchased from R&D systems and assays were performed in 1.2 M urea, 50 mM sodium borate buffer pH 8.0, and 10 mM CaCl.
Reaction: Final concentration in the LOXL2 and LOXL3 assays were as following and performed in a total volume of […]:
Experimental procedure: 5 μl of freshly prepared reaction buffer were delivered to reaction wells. Compounds were resuspended in 100% DMSO at 10 mM and delivered into buffer using acoustic technology (Echo550; nanoliter range). A 3× solution of LOXL2 or LOXL3 in reaction buffer was prepared (“enzyme solution”) and 5 μL of enzyme solution was added into the reaction wells. Buffer only was added to column 1 for no protein control. Reactions were incubated for 30 minutes at 37° C. A 3×mixture of cadaverine, Amplex Red, and HRP (“Substrate/Detection Mix) was prepared and subsequently 5 μL of the mixture added to each reaction well. Progress of reactions was monitored for 60 minutes at 37° C. using Clariostar plate reader (ex 530-12, ems 600-40). For all activity assays, pan-LOX inhibitor CCT365623 (Tang et al, 2017) and LOXL2/LOXL3 inhibitor PAT-1251 (PharmaKea) were included as standards.
Data analysis: Slope of the linear portion of the progress curve was calculated using Clariostar software. Typical analysis interval was between 8-30 min, but varied between experiments. The background subtracted signals (No protein wells are considered as background) were converted to % activity relative to DMSO controls. Data was analyzed using GraphPad Prism 4 with “sigmoidal dose-response (variable slope)”; 4 parameters with Hill Slope. Constraints: Bottom=Constant equal to 0. Top=Must be less than 120.

[2] = target: T2, Recombinant human LOXL2 (lysyl oxidase like 2) (Homo sapiens, UniProt Q9Y4K0); assay: LOXL2 inhibition assay (fluorometric, cadaverine/Amplex Red/HRP); assay type: biochemical; details: IC50 class; recombinant human LOXL2, cadaverine substrate; read-out: Activity Range LOXL2
T2 construct: purchased R&D systems
T2 sequence (Q9Y4K0 26-774): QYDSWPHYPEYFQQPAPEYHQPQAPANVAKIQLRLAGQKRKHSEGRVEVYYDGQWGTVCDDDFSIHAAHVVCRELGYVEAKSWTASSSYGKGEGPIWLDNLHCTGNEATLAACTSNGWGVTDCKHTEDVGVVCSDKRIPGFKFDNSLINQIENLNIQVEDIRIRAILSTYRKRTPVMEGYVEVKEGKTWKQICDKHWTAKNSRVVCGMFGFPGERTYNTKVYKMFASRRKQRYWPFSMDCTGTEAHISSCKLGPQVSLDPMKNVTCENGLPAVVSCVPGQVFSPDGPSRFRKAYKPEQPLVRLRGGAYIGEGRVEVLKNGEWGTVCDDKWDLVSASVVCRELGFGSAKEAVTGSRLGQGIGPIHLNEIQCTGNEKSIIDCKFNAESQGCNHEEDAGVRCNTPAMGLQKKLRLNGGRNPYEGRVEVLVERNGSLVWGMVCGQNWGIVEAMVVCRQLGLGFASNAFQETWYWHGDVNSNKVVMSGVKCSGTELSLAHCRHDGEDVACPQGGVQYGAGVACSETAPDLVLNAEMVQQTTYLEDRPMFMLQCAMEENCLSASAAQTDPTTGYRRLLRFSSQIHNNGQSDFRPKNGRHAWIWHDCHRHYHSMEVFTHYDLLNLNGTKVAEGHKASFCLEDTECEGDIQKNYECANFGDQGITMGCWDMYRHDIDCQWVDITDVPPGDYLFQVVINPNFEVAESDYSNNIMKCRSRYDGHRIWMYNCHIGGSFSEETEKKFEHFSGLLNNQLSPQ
In short: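 Both enzymes assayed in 1.2 M urea, 50 mM sodium borate pH 8.0, 10 mM CaCl, with 30 min compound–enzyme preincubation at 37° C before cadaverine/Amplex Red/HRP addition. Fluorescence followed 60 min at 37° C; linear-slope rates, background-subtracted, as % of DMSO control, fitted by 4-parameter variable-slope curve (bottom fixed at 0).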

[3] = Microsome stability study; assay type: in vitro ADME, mouse; details: for half-life at 2 μM / microsomal CLint at 2 μM / CLint scaled at 2 μM: CD-1, pH 7.4; for half-life at 2 μM / microsomal CLint at 2 μM: male mouse liver microsomes 0.5 mg/mL, NADPH; for CLint scaled at 2 μM: male, read-out: Scaled-up CLint; for CLint scaled at 2 μM / Predicted hepatic CL: mouse liver microsomes
Protocol: Pooled CD-1 mouse liver microsomes at 0.5 mg/mL were pre-incubated in phosphate buffer (100 mM, pH 7.4) containing 1 mM NADPH and 3 mM MgCl2 in a 96-well plate for 5 minutes at 37° C. Ultra-pure water was added instead of NADPH in the negative control group to exclude the misleading factor that resulted from instability of chemical itself. The reaction was initiated by adding test compound at the final concentration of 2 μM and incubated at 37° C. Aliquots were taken from the incubation at 0, 15, 30, 45 and 60 minutes followed by the addition of 4 volume of cold acetonitrile containing internal standards. Samples were centrifuged and supernatant was used for LC-MS/MS analysis.

SMILES | IC50 [1] | IC50 [2] | half-life at 2 μM [3] | microsomal CLint at 2 μM [3] | CLint scaled at 2 μM [3] | Predicted hepatic CL [3]
CS(=O)(=O)N1C[C@H](Oc2cccc(CN)c2)C[C@H](c2ccccc2F)C1 (racemic) [Example 70, cis-(3-((5-(2-Fluorophenyl)-1-(methylsulfonyl)piperidin-3-yl)oxy)phenyl)methanamine 2,2,2-trifluoroacetate] | 1000 to 30000 nM | ≤ 500 nM | – | – | – | –
NCc1ccc(S(=O)(=O)N2C[C@H](C(=O)N3CCS(=O)(=O)CC3)C[C@@H](c3ccccc3)C2)s1.O=C(O)C(F)(F)F (racemic) [Example 75B, trans-(1-((5-(Aminomethyl)thiophen-2-yl)sulfonyl)-5-phenylpiperidin-3-yl)(1,1-dioxidothiomorpholino)methanone 2,2,2-trifluoroacetate] | – | ≤ 500 nM | 37.1 min | 37.3 µL/min/mg | 163 mL/min/kg | 58.02 mL/min/kg
CS(=O)(=O)[C@@H]1C[C@@H](S(=O)(=O)c2cccc(CN)c2)CN(c2ccccc2)C1 (racemic) [Example 79, trans-(3-((-5-(Methylsulfonyl)-1-phenylpiperidin-3-yl)sulfonyl)phenyl)methanamine] | 1000 to 30000 nM | ≤ 500 nM | – | – | – | –
NCc1cccc(S(=O)(=O)N2C[C@H](C(=O)N3CCS(=O)(=O)CC3)C[C@@H](c3ccccc3)C2)c1 (racemic) [Example 85, trans-(1-((3-(Aminomethyl)phenyl)sulfonyl)-5-phenylpiperidin-3-yl)(1,1-dioxidothiomorpholino)methanone 2,2,2-trifluoroacetate] | 1000 to 30000 nM | ≤ 500 nM | – | – | – | –
CS(=O)(=O)N1CCN(C(=O)[C@H]2C[C@@H](c3ccccc3F)CN(S(=O)(=O)c3ccc(CN)s3)C2)CC1.O=C(O)C(F)(F)F (racemic) [Example 91, cis-(1-((5-(Aminomethyl)thiophen-2-yl)sulfonyl)-5-(2-fluorophenyl)piperidin-3-yl)(4-(methylsulfonyl)piperazin-1-yl)methanone 2,2,2-trifluoroacetate] | – | ≤ 500 nM | 24.5 min | 56.5 µL/min/mg | 247 mL/min/kg | 65.98 mL/min/kg
CS(=O)(=O)[C@H]1C[C@@H](S(=O)(=O)c2cccc(CN)c2)CN(c2ccccc2F)C1 (racemic) [Example 92, cis-(3-((-1-(2-Fluorophenyl)-5-(methylsulfonyl)piperidin-3-yl)sulfonyl)phenyl)methanamine 2,2,2-trifluoroacetate] | 1000 to 30000 nM | ≤ 500 nM | – | – | – | –
NCc1cccc(S(=O)(=O)N2C[C@H](C(=O)N3CCS(=O)(=O)CC3)C[C@@H](c3ccccc3)C2)n1 (racemic) [Example 115T, trans-(1-((6-(Aminomethyl)pyridin-2-yl)sulfonyl)-5-phenylpiperidin-3-yl)(1,1-dioxidothiomorpholino)methanone 2,2,2-trifluoroacetate] | > 30000 nM | 1000 to 30000 nM | – | – | – | –
NCc1ccc(S(=O)(=O)N2C[C@@H](C(=O)N3CCOCC3)C[C@@H](C3CCCCC3)C2)s1.O=C(O)C(F)(F)F (racemic) [Example 120, cis-(1-((5-(Aminomethyl)thiophen-2-yl)sulfonyl)-5-cyclohexylpiperidin-3-yl)(morpholino)methanone 2,2,2-trifluoroacetate] | – | ≤ 500 nM | 37 min | 37.4 µL/min/mg | 164 mL/min/kg | 58.07 mL/min/kg
NCc1ccnc(S(=O)(=O)N2C[C@@H](C(=O)N3CCS(=O)(=O)CC3)C[C@@H](c3ccccc3)C2)c1 (racemic) [Example 134, cis-(1-((4-(Aminomethyl)pyridin-2-yl)sulfonyl)-5-phenylpiperidin-3-yl)(1,1-dioxidothiomorpholino)methanone 2,2,2-trifluoroacetate] | ≤ 500 nM | ≤ 500 nM | – | – | – | –
NCc1cccc(S(=O)(=O)N2C[C@@H](C(=O)N3CCOCC3)C[C@@H](C3CCCCC3)C2)c1 (racemic) [Example 139, cis-(1-((3-(Aminomethyl)phenyl)sulfonyl)-5-cyclohexylpiperidin-3-yl)(morpholino)methanone] | 1000 to 30000 nM | 500 to 1000 nM | – | – | – | –
NCc1cccc(S(=O)(=O)N2C[C@@H](C(=O)N3CCS(=O)(=O)CC3)C[C@@H](C3CCCCC3)C2)c1 (racemic) [Example 140, cis-(1-((3-(Aminomethyl)phenyl)sulfonyl)-5-cyclohexylpiperidin-3-yl)(1,1-dioxidothiomorpholino)methanone] | 1000 to 30000 nM | 500 to 1000 nM | – | – | – | –
CN(C)C(=O)[C@H]1C[C@@H](C2CCCCC2)CN(S(=O)(=O)c2cc(CN)ccn2)C1 (racemic) [Example 144, cis-1-((4-(Aminomethyl)pyridin-2-yl)sulfonyl)-5-cyclohexyl-N,N-dimethylpiperidine-3-carboxamide 2,2,2-trifluoroacetate] | ≤ 500 nM | ≤ 500 nM | – | – | – | –
NCc1ccc(S(=O)(=O)N2C[C@H](C(=O)N3CCOCC3)C[C@H](c3ccccc3)C2)s1 [Example 13B, ((3R,5R)-1-((5-(aminomethyl)thiophen-2-yl)sulfonyl)-5-phenylpiperidin-3-yl)(morpholino)methanone] | – | ≤ 500 nM | 79.7 min | 17.4 µL/min/mg | 76.1 mL/min/kg | 41.24 mL/min/kg
